In paper doi:10.1101/2025.07.16.665058v1 (biorxiv, 2025):
Ends that are not written are not given here.

What was measured:
rat ASIC3 (rASIC3) [1] = biological target: T1, rat ASIC3 (rASIC3) (Rattus norvegicus, UniProt O35240); assay: whole-cell patch clamp, HEK293, pH5.5-evoked sustained current at […] s; type: cell-based; settings: peptide in pH 7.4 resting solution, pH 5.5 pulse, -50 mV
T1 sequence (O35240 1-533): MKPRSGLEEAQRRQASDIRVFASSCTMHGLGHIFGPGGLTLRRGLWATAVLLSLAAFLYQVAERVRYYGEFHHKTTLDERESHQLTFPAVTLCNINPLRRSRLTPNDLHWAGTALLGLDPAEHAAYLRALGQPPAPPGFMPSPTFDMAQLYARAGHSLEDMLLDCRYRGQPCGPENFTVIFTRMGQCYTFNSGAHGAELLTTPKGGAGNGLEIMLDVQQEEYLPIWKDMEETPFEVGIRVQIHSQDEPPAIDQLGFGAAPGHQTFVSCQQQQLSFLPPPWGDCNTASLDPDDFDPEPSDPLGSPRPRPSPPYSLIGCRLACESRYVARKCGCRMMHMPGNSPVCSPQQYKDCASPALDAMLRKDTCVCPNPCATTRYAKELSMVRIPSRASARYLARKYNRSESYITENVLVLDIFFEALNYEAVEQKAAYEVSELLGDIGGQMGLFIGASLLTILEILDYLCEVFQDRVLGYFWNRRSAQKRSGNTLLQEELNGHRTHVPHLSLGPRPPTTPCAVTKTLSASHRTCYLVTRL

rat ASIC3 (rASIC3) [2] = biological target: T1, rat ASIC3 (rASIC3); assay: whole-cell patch clamp, HEK293, potentiation of pH5.5-evoked sustained current; type: cell-based; settings: peptide applied in pH 7.4 resting solution, pH 5.5 pulse; positive modulator

Row | Mean fold increase (I/Ictrl) (rat ASIC3 (rASIC3) [1]) [fold] | EC50 (rat ASIC3 (rASIC3) [2]) [µM] | Substance
1 | 24.22 | – | FRC̄C̄RFamide
2 | – | 4.41 ± 0.95 | FRCRCF-NH2 (cysteine pairing not given here)
3 | 34.08 | – | FRC̄R̄C̄Famide
4 | – | 4.73 ± 0.8 | FRCCRF-NH2 (cysteine pairing not given here)
